Experimental data published in a melting point compilation (Tetko et al.; mined from patent text by program, amines drawn as free bases though some values may be those of a salt).

| Compound | melting point [°C] |
| --- | --- |
| CC(=NOCCOc1ccc(CC2SC(=O)NC2=O)cc1)c1ccc(OCc2ccccc2)nc1 (stereo not given) | 160 to 161 |
| N#Cc1cccn(-c2ccc(S(=O)(=O)N(CCO)CCO)cc2)c1=O | 226 to 228 |
| CC(C)(C)OC(=O)C1CCCN2CC(CBr)C(=O)N12 (stereo not given) | 88 to 89 |
| CC(C)n1nc(-c2c(-c3ccccc3)nn3ccc(OCCC4CCCC4)cc23)ccc1=O | 160 |
| O=C1Nc2ccc(Oc3ccccc3)cc2SC(c2ccc3c(c2)OCO3)C1O (stereo not given) | 228 to 230 |
| CN1CCN2c3ccc(Cl)cc3C(c3ccco3)=[N+]([O-])CC2C1 (stereo not given) | 202 to 204 |
| O=c1ccc(S(=O)(=O)n2cccc2)n[nH]1 | 140 to 145 |
| COc1ccc(Sc2ncccc2C(=O)NCC23CC4CC(CC(C4)C2)C3)cc1 | 130 to 131 |
| O=c1[nH]nc(-c2ccccc2)c(-c2ccccc2)c1S(=O)(=O)c1ccccc1 | 254 to 256 |
| CN(C)c1nc(O)ns1 | 142 |
| COCNC(=O)NC1CCCc2sccc21 (stereo not given) | 160 to 162 |
| Fc1ccc(Cn2c(NC3CCN(CCc4cccs4)CC3)nc3ccccc32)cc1 | 152 |
| CCCCOc1ccc(C2=CC=CN3CCS(=O)(=O)N=C23)cc1 | 230 to 232 |
| O=C(Cn1ccnc1)c1cc(Br)cc2ccccc12 | 242 to 244 |
| O=C1C(=O)c2ccccc2C2=C1SCC1(CCN(C(=O)CSc3ccccc3)CC1)O2 | 155 to 157 |
| O=c1[nH]c2cc(O)ccc2c2oc3ccccc3c12 | > 300 |
| CC(C)Oc1c(C(=O)Nc2nnn[nH]2)[nH]c(Br)c1Br | 194 to 196 |
| CN1C(=S)NN2CCCC21c1ccc(Cl)cc1 (stereo not given) | 159 to 161 |
| CC(C)(C)C(O)(Cc1ccccc1)C(Cn1ccnc1)Oc1ccc(Cl)cc1 (stereo not given) | 179 to 181 |
| CC(C)(C)OC(=O)CN1C(=O)C(N2C(=O)c3ccccc3C2=O)CSCC1c1cccs1 (stereo not given) | 211 to 212 |
| Fc1ccccc1[C@]1(Cn2nc[nH]c2=S)O[C@H]1c1ccccc1Cl (racemic) | 179 |
| O=C1CCOc2cc(F)ccc21 | 61 to 62 |
| CC(C)CCNC(=S)c1ccc2c(c1)N(C(C)CN1CCC[C@@H]1CO)c1ccccc1S2 (stereo not given in full) | 140 |
| Nc1ncc(-c2cnc3[nH]c(=O)n(CC4CCCCC4)c3n2)cn1 | > 250 |
| O=C1N(N2CCOCC2)c2ccccc2C1(Cc1ccccc1)Cc1ccccc1 | 179 to 180 |
| O=C(CCOc1cccc(CN2CCCCC2)c1)Nc1cccnc1 | 92 to 96 |
| CC(C)COc1cc(O)c2c(c1)OC(C)(C)CC2=O | 77 to 79 |
| Nc1ncc(-c2ccc3nnn(Cc4ccc5ncccc5c4)c3n2)cn1 | 244 to 246 |
| O=C1N(CCCCN2CCN(c3n[nH]c4ccccc34)CC2)CSC12CCCC2 | 166 to 168 |
| OCC1(c2ccccc2)CCN(CCC(c2ccccc2)(c2ccccc2)c2ccccn2)CC1 | 148 to 151 |

Next, values leading:

| melting point [°C] | Compound |
| --- | --- |
| 78 to 80 | COC(=O)CCC(=O)c1ccc(OC)c(CCl)c1 |
| 90 to 91 | Cc1c(Cl)cccc1Nc1ncccc1C(=O)OCOC(=O)C(C)(C)C |
| 114 to 115 | CCOC(=O)C1=C(C#N)NC(C)=C(C(=O)OCCOCc2ccccc2)C1c1cccc([N+](=O)[O-])c1 (stereo not given) |
| 257 to 258 | O=C(Cc1cccc2ccccc12)N[C@H]1C[C@H](C(=O)O)Nc2cc(Cl)cc(Cl)c21 (relative stereo) |
| 142 to 143 | COc1cccc(CC(=O)O)c1OCCCc1cn(-c2ccc(C(F)(F)F)cn2)nc1C(C)C |
| 102 to 106 | CC(=O)c1cc2c(s1)C(N1CCCC1=O)C(O)C(C)(C)O2 (stereo not given) |
| 192 to 194 | O=C(O)c1cc(=O)c2c(OCC(O)COc3ccc(Br)cc3)cccc2o1 (stereo not given) |
| 151 to 153 | CCOc1cc(N)c(Cl)cc1C(=O)NCC1CN(Cc2ccc(F)cc2)CCO1 (stereo not given) |
| 264 to 265 | CCCn1ccc2c(c1=O)C(c1cccc(Cl)c1Cl)C(C(=O)OCC)=C(C)N2 (stereo not given) |
| 65.5 to 67 | O=C1c2cc(CCCCOC(=O)C(F)(F)F)ccc2OCc2ccsc21 |
| 206 to 208 | CC#CCOc1cc(/C=C/C(=O)O)ccc1OC(F)F |
| 169 to 170 | COc1c(C)cnc(CS(=O)c2nc3ncccc3[nH]2)c1C (stereo not given) |
| 114 to 116 | Cc1c(C)c2c(c(C)c1O)CCC(C)(COc1ccc([N+](=O)[O-])cc1)O2 (stereo not given) |
| 69 to 70 | CN(C)CCCOc1ccc2c(=O)c3ccc(OCCCN(C)C)cc3oc2c1 |
| 103 to 105 | COc1ccc(-c2cc(-c3ccc(-c4c(Cc5ccccc5)sc5ccccc45)cc3)cc(Br)c2OCC(=O)O)cc1OC |
| 173 to 174 | N#Cc1cnn(-c2ccc(Cl)c(Cl)c2Cl)c1NC(=O)CCCCl |
| 34.5 to 36 | CCNC(=O)c1ccccc1OC(C)(C)C |
| 101 | COc1ccccc1C(Cl)=C(Cl)n1ccnc1 |
| 86 to 88 | COC(=O)c1nc(OC)sc1-c1ccccc1 |
| > 250 | Cn1c(-c2c(Cl)cccc2Cl)nc2cc(C(=O)O)ccc21 |

| melting point [°C] | Compound |
| --- | --- |
| 78 to 82 | CC(CC(=O)NC(C)(C)C#CCl)Oc1cncc(Cl)c1 (stereo not given) |
| 243 | Cn1ncc(C(=O)N2CC(F)C2)c1C(=O)Nc1ccc2nc(-c3ccccc3)nn2c1 |
| 179 | Cc1ccc(-c2cc(NCCNc3cc(-c4ccc(C)cc4)[nH]n3)n[nH]2)cc1 |
| 125 | CCCCCOc1cc(C(=O)O)ccc1OC |
| 195 to 197 | CN(C)c1ccc(C2(c3ccc(N(C)C)cc3N(C)C)OC(=O)c3c(Cl)c(Cl)c(Cl)c(Cl)c32)c(N(C)C)c1 |
| 188 | CC1=C(C(=O)O)C(c2ccccc2Cl)C(c2cccs2)=NN1 (stereo not given) |
| 228 | COc1ccc(Cl)cc1C(=O)NC1Cc2cc(S(N)(=O)=O)c(OC)cc2OC1(C)C (stereo not given) |
| 197 | CN(C)c1cc(C(F)(F)F)cc(Cl)c1-n1nc(C#N)c(S(=O)(=O)C(F)(F)F)c1N |
| 180 to 182 | COC(=O)c1nc(-c2cc(OC)c(Cl)cc2F)cc(NC(C)=O)c1Cl |
| 183 to 185 | CCOC(=O)c1ccc2nc3c(c(=O)n2c1)CSC3 |
| 159 to 162 | CCOC(=O)c1cnc2c(NC(=O)c3c(Cl)cccc3Cl)cccc2c1C |
| 170 to 172 | Cc1cc(F)ccc1-c1ccc2c(c1)NC(=O)CC(c1cccc(-n3ccnc3)c1)=N2 |
| 141 to 142 | Cc1cc(C(=O)CC(O)(c2cc(Cl)cc(Cl)c2)C(F)(F)F)ccc1Br (stereo not given) |
| 135 to 138 | CN(C)c1noc(-c2cc(C(C)(C)C)c(O)c(C(C)(C)C)c2)n1 |
| 109 to 112 | CNC(=O)/C(=N/OC)c1ccccc1COc1ccccc1C |
| 101 to 103 | COc1c(C)sc2nc(SCc3ccccc3)nn12 |
| 112 to 114 | CC(C(=O)OCCO)n1c(-c2ccc(Cl)cc2)nc2cccnc21 (stereo not given) |
| 156 | CC(C)(C)c1cc(-c2nnc(S(C)(=O)=O)s2)cc(C(C)(C)C)c1O |
| 212 to 215 | Cc1c(C(=O)NCc2ccc3c(Br)c(OCc4nnn[nH]4)ccc3c2)oc2ccccc12 |
| 210 | COc1ccc(N2CCOCC2)c2sc(C(=O)NCC(=O)c3csc4ccccc34)nc12 |
